Data reported in PubChem BioAssay (NCI).
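How tested: cells in 96-well plates exposed to compound for 48 hours at five concentrations. GI50 is the concentration that inhibits growth by half. Definition used: TGI = concentration required for complete inhibition of growth.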

Key:
Assay in all cases: NCI-60 cell line screen, 48 h
[1] = test system: RXF 393 renal
[2] = test system: NCI/ADR-RES ovarian
[3] = test system: 786-0 renal
[4] = test system: SNB-19 CNS
[5] = test system: SR leukemia
[6] = test system: HS 578T breast
[7] = test system: LOX IMVI melanoma
[8] = test system: SK-MEL-2 melanoma
[9] = test system: NCI-H226 lung
[10] = test system: SF-268 CNS
[11] = test system: M14 melanoma
[12] = test system: T-47D breast
[13] = test system: NCI-H522 lung
[14] = test system: HOP-62 NSCLC
[15] = test system: MALME-3M melanoma
[16] = test system: RPMI-8226 leukemia
[17] = test system: HL-60(TB) leukemia
[18] = test system: OVCAR-3 ovarian
[19] = test system: TK-10 renal
[20] = test system: SW-620 colon
[21] = test system: OVCAR-4 ovarian
[22] = test system: U251 CNS
[23] = test system: MDA-MB-435
[24] = test system: SF-295 CNS
[25] = test system: UACC-62 melanoma
[26] = test system: DU-145 prostate
[27] = test system: CCRF-CEM leukemia
[28] = test system: UO-31 renal
[29] = test system: MOLT-4 leukemia
[30] = test system: A549 NSCLC
[31] = test system: NCI-H460 lung
[32] = test system: SN12C renal
[33] = test system: OVCAR-8 ovarian
[34] = test system: SF-539 CNS
[35] = test system: BT-549 breast
[36] = test system: HCT-15 colon
[37] = test system: HOP-92 NSCLC
[38] = test system: HCC-2998 colon
[39] = test system: ACHN renal
[40] = test system: KM12 colon
[41] = test system: SK-MEL-28 melanoma
[42] = test system: COLO 205 colon
[43] = test system: HT29 colon
[44] = test system: NCI-H23 lung
[45] = test system: MCF7 breast
[46] = test system: K-562 leukemia
[47] = test system: UACC-257 melanoma
[48] = test system: PC-3 prostate
[49] = test system: OVCAR-5 ovarian
[50] = test system: IGROV1 ovarian
[51] = test system: EKVX NSCLC
[52] = test system: CAKI-1 renal
[53] = test system: SNB-75 CNS
[54] = test system: MDA-MB-231 breast
[55] = test system: SK-OV-3 ovarian
[56] = test system: SK-MEL-5 melanoma

**Q.** With `O=c1[nH]c2c3ccncc3cc(-c3cccc(Cl)c3)c2c2cnccc12` as the molecule, how does the GI50 [1] read?
**A.** The GI50 was 0.737 µM.

**Q.** And the TGI [1]?
**A.** The TGI was 52.3 µM.

**Q.** What about the GI50 [2] of the same molecule?
**A.** The GI50 was 39.9 µM.

**Q.** What about the TGI [2] of the same molecule?
**A.** The TGI was over 100 µM.

**Q.** And the GI50 [3]?
**A.** The GI50 was 18.8 µM.

**Q.** What about the TGI [3] of the same molecule?
**A.** Its TGI is 79.5 µM.

**Q.** What about the GI50 [4] of the same molecule?
**A.** The GI50 was 25.6 µM.

**Q.** What about the TGI [4] of the same molecule?
**A.** The TGI was over 100 µM.

**Q.** And the GI50 [5]?
**A.** Its GI50 is 0.442 µM.

**Q.** And the TGI [5]?
**A.** The TGI was over 100 µM.

**Q.** What about the GI50 [6] of the same molecule?
**A.** Its GI50 is 28.8 µM.

**Q.** And the TGI [6]?
**A.** Its TGI is over 100 µM.

**Q.** And the GI50 [7]?
**A.** Its GI50 is 2.04 µM.

**Q.** What about the TGI [7] of the same molecule?
**A.** The TGI was over 100 µM.

**Q.** What about the GI50 [8] of the same molecule?
**A.** Its GI50 is 47.9 µM.

**Q.** What about the TGI [8] of the same molecule?
**A.** The TGI was over 100 µM.

**Q.** What about the GI50 [9] of the same molecule?
**A.** The GI50 was 73.8 µM.

**Q.** And the TGI [9]?
**A.** Its TGI is over 100 µM.

**Q.** And the GI50 [10]?
**A.** Its GI50 is 20.8 µM.

**Q.** And the TGI [10]?
**A.** Its TGI is over 100 µM.

**Q.** What about the GI50 [11] of the same molecule?
**A.** Its GI50 is over 100 µM.

**Q.** And the TGI [11]?
**A.** Its TGI is over 100 µM.

**Q.** What about the GI50 [12] of the same molecule?
**A.** The GI50 was over 100 µM.

**Q.** What about the TGI [12] of the same molecule?
**A.** Its TGI is over 100 µM.

**Q.** And the GI50 [13]?
**A.** Its GI50 is 30.4 µM.

**Q.** What about the TGI [13] of the same molecule?
**A.** Its TGI is over 100 µM.

**Q.** And the GI50 [14]?
**A.** Its GI50 is 27.9 µM.

**Q.** And the TGI [14]?
**A.** Its TGI is 91.5 µM.

**Q.** And the GI50 [15]?
**A.** Its GI50 is over 100 µM.

**Q.** What about the TGI [15] of the same molecule?
**A.** Its TGI is over 100 µM.

**Q.** What about the GI50 [16] of the same molecule?
**A.** The GI50 was over 100 µM.

**Q.** What about the TGI [16] of the same molecule?
**A.** Its TGI is over 100 µM.

**Q.** And the GI50 [17]?
**A.** The GI50 was over 100 µM.

**Q.** And the TGI [17]?
**A.** Its TGI is over 100 µM.

**Q.** What about the GI50 [18] of the same molecule?
**A.** Its GI50 is 3.7 µM.

**Q.** And the TGI [18]?
**A.** Its TGI is over 100 µM.

**Q.** What about the GI50 [19] of the same molecule?
**A.** Its GI50 is 40.2 µM.

**Q.** And the TGI [19]?
**A.** The TGI was over 100 µM.

**Q.** What about the GI50 [20] of the same molecule?
**A.** The GI50 was over 100 µM.

**Q.** What about the TGI [20] of the same molecule?
**A.** The TGI was over 100 µM.

**Q.** And the GI50 [21]?
**A.** The GI50 was over 100 µM.

**Q.** And the TGI [21]?
**A.** The TGI was over 100 µM.

**Q.** What about the GI50 [22] of the same molecule?
**A.** The GI50 was 4.52 µM.

**Q.** And the TGI [22]?
**A.** Its TGI is over 100 µM.

**Q.** What about the GI50 [23] of the same molecule?
**A.** Its GI50 is over 100 µM.

**Q.** And the TGI [23]?
**A.** Its TGI is over 100 µM.

**Q.** And the GI50 [24]?
**A.** The GI50 was 34 µM.

**Q.** What about the TGI [24] of the same molecule?
**A.** Its TGI is over 100 µM.

**Q.** What about the GI50 [25] of the same molecule?
**A.** Its GI50 is 44.3 µM.

**Q.** And the TGI [25]?
**A.** Its TGI is over 100 µM.

**Q.** What about the GI50 [26] of the same molecule?
**A.** The GI50 was over 100 µM.

**Q.** What about the TGI [26] of the same molecule?
**A.** Its TGI is over 100 µM.

**Q.** What about the GI50 [27] of the same molecule?
**A.** The GI50 was over 100 µM.

**Q.** What about the TGI [27] of the same molecule?
**A.** Its TGI is over 100 µM.

**Q.** And the GI50 [28]?
**A.** Its GI50 is over 100 µM.

**Q.** What about the TGI [28] of the same molecule?
**A.** Its TGI is over 100 µM.

**Q.** And the GI50 [29]?
**A.** Its GI50 is over 100 µM.

**Q.** And the TGI [29]?
**A.** The TGI was over 100 µM.

**Q.** What about the GI50 [30] of the same molecule?
**A.** The GI50 was over 100 µM.

**Q.** What about the TGI [30] of the same molecule?
**A.** Its TGI is over 100 µM.

**Q.** And the GI50 [31]?
**A.** The GI50 was over 100 µM.

**Q.** What about the TGI [31] of the same molecule?
**A.** The TGI was over 100 µM.

**Q.** And the GI50 [32]?
**A.** The GI50 was 84.2 µM.

**Q.** And the TGI [32]?
**A.** The TGI was over 100 µM.

**Q.** And the GI50 [33]?
**A.** Its GI50 is 11.7 µM.

**Q.** What about the TGI [33] of the same molecule?
**A.** The TGI was over 100 µM.

**Q.** And the GI50 [34]?
**A.** The GI50 was 19.6 µM.

**Q.** And the TGI [34]?
**A.** The TGI was over 100 µM.

**Q.** What about the GI50 [35] of the same molecule?
**A.** The GI50 was 7.94 µM.

**Q.** What about the TGI [35] of the same molecule?
**A.** Its TGI is over 100 µM.

**Q.** And the GI50 [36]?
**A.** Its GI50 is over 100 µM.

**Q.** And the TGI [36]?
**A.** Its TGI is over 100 µM.

**Q.** What about the GI50 [37] of the same molecule?
**A.** The GI50 was 69.5 µM.

**Q.** What about the TGI [37] of the same molecule?
**A.** The TGI was over 100 µM.

**Q.** And the GI50 [38]?
**A.** The GI50 was over 100 µM.

**Q.** What about the TGI [38] of the same molecule?
**A.** The TGI was over 100 µM.

**Q.** What about the GI50 [39] of the same molecule?
**A.** The GI50 was 1.91 µM.

**Q.** What about the TGI [39] of the same molecule?
**A.** Its TGI is over 100 µM.

**Q.** And the GI50 [40]?
**A.** Its GI50 is over 100 µM.

**Q.** What about the TGI [40] of the same molecule?
**A.** Its TGI is over 100 µM.

**Q.** What about the GI50 [41] of the same molecule?
**A.** The GI50 was over 100 µM.

**Q.** What about the TGI [41] of the same molecule?
**A.** The TGI was over 100 µM.

**Q.** What about the GI50 [42] of the same molecule?
**A.** The GI50 was over 100 µM.

**Q.** What about the TGI [42] of the same molecule?
**A.** The TGI was over 100 µM.

**Q.** And the GI50 [43]?
**A.** Its GI50 is over 100 µM.

**Q.** And the TGI [43]?
**A.** The TGI was over 100 µM.

**Q.** And the GI50 [44]?
**A.** The GI50 was 12.9 µM.

**Q.** And the TGI [44]?
**A.** The TGI was over 100 µM.

**Q.** And the GI50 [45]?
**A.** The GI50 was over 100 µM.

**Q.** What about the TGI [45] of the same molecule?
**A.** The TGI was over 100 µM.

**Q.** And the GI50 [46]?
**A.** Its GI50 is over 100 µM.

**Q.** And the TGI [46]?
**A.** The TGI was over 100 µM.

**Q.** And the GI50 [47]?
**A.** The GI50 was over 100 µM.

**Q.** And the TGI [47]?
**A.** Its TGI is over 100 µM.

**Q.** And the GI50 [48]?
**A.** Its GI50 is over 100 µM.

**Q.** And the TGI [48]?
**A.** The TGI was over 100 µM.

**Q.** What about the GI50 [49] of the same molecule?
**A.** Its GI50 is over 100 µM.

**Q.** And the TGI [49]?
**A.** The TGI was over 100 µM.

**Q.** And the GI50 [50]?
**A.** Its GI50 is 72.2 µM.

**Q.** And the TGI [50]?
**A.** Its TGI is over 100 µM.

**Q.** What about the GI50 [51] of the same molecule?
**A.** The GI50 was over 100 µM.

**Q.** And the TGI [51]?
**A.** The TGI was over 100 µM.

**Q.** What about the GI50 [52] of the same molecule?
**A.** Its GI50 is over 100 µM.

**Q.** What about the TGI [52] of the same molecule?
**A.** Its TGI is over 100 µM.

**Q.** What about the GI50 [53] of the same molecule?
**A.** The GI50 was 17.7 µM.

**Q.** And the TGI [53]?
**A.** Its TGI is 89.7 µM.

**Q.** And the GI50 [54]?
**A.** The GI50 was 4.71 µM.

**Q.** What about the TGI [54] of the same molecule?
**A.** The TGI was over 100 µM.

**Q.** And the GI50 [55]?
**A.** The GI50 was 24.7 µM.

**Q.** And the TGI [55]?
**A.** The TGI was over 100 µM.

**Q.** What about the GI50 [56] of the same molecule?
**A.** The GI50 was over 100 µM.

**Q.** And the TGI [56]?
**A.** The TGI was over 100 µM.
